Common to all, as to format: functional
For assay [1], the system named is Staphylococcus aureus. Description: Antibacterial activity against Staphylococcus aureus Smith by micro-broth dilution method. The note with it: Staphylococcus aureus, Smith; read-out: MIC.
Assay [2] concerns Staphylococcus aureus. Description: Antibacterial activity against methicillin resistant Staphylococcus aureus OIT971 by micro-broth dilution method. The note with it: Staphylococcus aureus, OIT971; read-out: MIC. On the technique in general: Dilution methods test growth across graded concentrations, often in twofold steps.
In another assay the test system is Streptococcus pneumoniae. The experiment in a line: Antibacterial activity against Streptococcus pneumoniae IID553 by micro-broth dilution method. The note with it: Streptococcus pneumoniae, IID553; read-out: MIC.
In a further assay the test system is Enterococcus faecium. Description: Antibacterial activity against Enterococcus faecium VanA by micro-broth dilution method. The note with it: Enterococcus faecium, VanA; read-out: MIC.
Another assay deals with Escherichia coli. Description: Antibacterial activity against Escherichia coli ATCC 25922 by micro-broth dilution method. The note with it: Escherichia coli, ATCC 25922; read-out: MIC.
The subject of a further assay is Acinetobacter baumannii. The experiment in a line: Antibacterial activity against Acinetobacter baumannii IID876 by micro-broth dilution method. The note with it: Acinetobacter baumannii, IID876; read-out: MIC.
The test system of a further assay is Pseudomonas aeruginosa. The experiment in a line: Antibacterial activity against Pseudomonas aeruginosa PAO1 by micro-broth dilution method. The note with it: Pseudomonas aeruginosa, PAO1; read-out: MIC.
For assay [3], the system named is Staphylococcus aureus. Description: Ratio of MIC for quinolone-resistant Staphylococcus aureus MS5935 to MIC for quinolone-sensitive Staphylococcus aureus MS5935.

As usually defined, the MIC is the least concentration at which growth counts as inhibited.

In brackets after ≈: the same amount, converted by molar mass.

Turning to `COc1ccc2ncc(F)c(C(CO)CC34CCC(NCc5ccc6c(n5)NC(=O)CO6)(CC3)CO4)c2n1` (racemic), the minimal inhibitory concentration (MIC) was determined as 1 µg/mL (≈ 1.91 µM) with Staphylococcus aureus [1]; 1 µg/mL (≈ 1.91 µM) with Staphylococcus aureus [2]; 2 µg/mL (≈ 3.82 µM) in the assay on Streptococcus pneumoniae; 16 µg/mL (≈ 30.6 µM) with Enterococcus faecium; 32 µg/mL (≈ 61.1 µM) with Escherichia coli; 16 µg/mL (≈ 30.6 µM) with Acinetobacter baumannii. Further, in the assay with Pseudomonas aeruginosa, the MIC is 32 µg/mL (≈ 61.1 µM).
As for `COc1ccc2ncc(F)c(CC(N)C34CCC(NCc5ccc6c(n5)NC(=O)CO6)(CC3)CO4)c2n1` (single isomer, unassigned; (+)), the minimal inhibitory concentration (MIC) in the assay with Staphylococcus aureus [1] is 0.25 µg/mL (≈ 0.492 µM); with Staphylococcus aureus [2], 0.25 µg/mL (≈ 0.492 µM); with Streptococcus pneumoniae it was 2 µg/mL (≈ 3.93 µM); with Enterococcus faecium, 8 µg/mL (≈ 15.7 µM); with Escherichia coli, 1 µg/mL (≈ 1.97 µM); in the assay with Acinetobacter baumannii it was 0.25 µg/mL (≈ 0.492 µM). Further, the minimal inhibitory concentration (MIC) in the assay on Pseudomonas aeruginosa stood at 16 µg/mL (≈ 31.5 µM).
`COc1ccc2ncc(F)c(CC(O)(C(F)(F)F)C34CCC(NCc5ccc6c(n5)NC(=O)CO6)(CC3)CO4)c2n1` (racemic): the MIC in the assay on Staphylococcus aureus [1] was 0.5 µg/mL (≈ 0.866 µM); in the assay with Staphylococcus aureus [2], 0.5 µg/mL (≈ 0.866 µM); in the assay with Streptococcus pneumoniae it was 4 µg/mL (≈ 6.93 µM); in the assay with Enterococcus faecium it was 32 µg/mL (≈ 55.4 µM); in the assay on Escherichia coli, 32 µg/mL (≈ 55.4 µM); in the assay with Acinetobacter baumannii, 32 µg/mL (≈ 55.4 µM). The MIC in the assay with Pseudomonas aeruginosa was 32 µg/mL (≈ 55.4 µM).
Regarding `COc1ccc2ncc(F)c(CC(NS(C)(=O)=O)C34CCC(NCc5ccc6c(n5)NC(=O)CO6)(CC3)CO4)c2n1` (racemic), the MIC with Staphylococcus aureus [1], with Staphylococcus aureus [2], in the assay with Streptococcus pneumoniae, with Enterococcus faecium, with Escherichia coli and in the assay on Acinetobacter baumannii was 32 µg/mL (≈ 54.5 µM) each time. Besides, in the assay on Pseudomonas aeruginosa, the MIC was determined as 32 µg/mL (≈ 54.5 µM).
Consider `COc1ccc2ncc(F)c(CC(=O)C34CCC(NCc5ccc6c(n5)NC(=O)CO6)(CC3)CO4)c2n1`, for which the MIC in the assay on Staphylococcus aureus [1] came to 0.13 µg/mL (≈ 0.256 µM); in the assay on Staphylococcus aureus [2] it was 0.13 µg/mL (≈ 0.256 µM); in the assay on Streptococcus pneumoniae, 0.25 µg/mL (≈ 0.493 µM); with Enterococcus faecium, 4 µg/mL (≈ 7.88 µM); in the assay on Escherichia coli, 16 µg/mL (≈ 31.5 µM); with Acinetobacter baumannii it was 2 µg/mL (≈ 3.94 µM). For the same molecule, the MIC in the assay with Pseudomonas aeruginosa amounted to 16 µg/mL (≈ 31.5 µM).
In the case of `COc1ccc2ncc(F)c(CC(F)C34CCC(NCc5ccc6c(n5)NC(=O)CO6)(CC3)CO4)c2n1` (racemic), the minimum inhibitory concentration (MIC) in the assay on Staphylococcus aureus [1] is 0.25 µg/mL (≈ 0.489 µM); in the assay with Staphylococcus aureus [2], 0.25 µg/mL (≈ 0.489 µM); in the assay with Streptococcus pneumoniae, 1 µg/mL (≈ 1.95 µM); in the assay with Enterococcus faecium it was 8 µg/mL (≈ 15.6 µM); with Escherichia coli it was 8 µg/mL (≈ 15.6 µM); in the assay with Acinetobacter baumannii it was 8 µg/mL (≈ 15.6 µM). The MIC in the assay on Pseudomonas aeruginosa was determined as 8 µg/mL (≈ 15.6 µM).
In the case of `COc1ccc2ncc(F)c(CCC34CCC(NCc5ccc6c(n5)NC(=O)CO6)(CC3)CO4)c2n1`, the Ratio with Staphylococcus aureus [3] is 2.
With `COc1ccc2ncc(F)c(CC(NOC(C)=O)C34CCC(NCc5ccc6c(n5)NC(=O)CO6)(CC3)CO4)c2n1` (racemic), the MIC in the assay on Staphylococcus aureus [1] stood at 2 µg/mL (≈ 3.53 µM); in the assay on Staphylococcus aureus [2], 2 µg/mL (≈ 3.53 µM); with Streptococcus pneumoniae, 16 µg/mL (≈ 28.2 µM); in the assay on Enterococcus faecium, 32 µg/mL (≈ 56.5 µM); in the assay with Escherichia coli, 32 µg/mL (≈ 56.5 µM); with Acinetobacter baumannii it was 32 µg/mL (≈ 56.5 µM). Further, the minimal inhibitory concentration (MIC) in the assay on Pseudomonas aeruginosa was 32 µg/mL (≈ 56.5 µM).
In the case of `CCOC(=O)C(CC12CCC(NCc3ccc4c(n3)NC(=O)CO4)(CC1)CO2)c1c(F)cnc2ccc(OC)nc12` (racemic), the MIC with Staphylococcus aureus [1] came to 2 µg/mL (≈ 3.54 µM); in the assay on Staphylococcus aureus [2], 2 µg/mL (≈ 3.54 µM); in the assay on Streptococcus pneumoniae, 8 µg/mL (≈ 14.1 µM); with Enterococcus faecium, 32 µg/mL (≈ 56.6 µM); in the assay with Escherichia coli, 32 µg/mL (≈ 56.6 µM); in the assay with Acinetobacter baumannii, 32 µg/mL (≈ 56.6 µM). Besides, in the assay on Pseudomonas aeruginosa, the MIC came to 32 µg/mL (≈ 56.6 µM).
In the case of `COc1ccc2ncc(F)c(CC(OCCO)C34CCC(NCc5ccc6c(n5)NC(=O)CO6)(CC3)CO4)c2n1` (racemic), the minimal inhibitory concentration (MIC) in the assay on Staphylococcus aureus [1] stood at 2 µg/mL (≈ 3.61 µM); in the assay on Staphylococcus aureus [2] it was 2 µg/mL (≈ 3.61 µM); in the assay on Streptococcus pneumoniae it was 8 µg/mL (≈ 14.5 µM); in the assay on Enterococcus faecium it was 32 µg/mL (≈ 57.8 µM); in the assay on Escherichia coli, 32 µg/mL (≈ 57.8 µM); with Acinetobacter baumannii it was 32 µg/mL (≈ 57.8 µM). In the assay on Pseudomonas aeruginosa, the MIC was 32 µg/mL (≈ 57.8 µM).
As for `COc1ccc2ncc(F)c(C(C)(O)CC34CCC(NCc5ccc6c(n5)NC(=O)CO6)(CC3)CO4)c2n1` (racemic), the minimal inhibitory concentration (MIC) in the assay on Staphylococcus aureus [1] stood at 1 µg/mL (≈ 1.91 µM); with Staphylococcus aureus [2] it was 1 µg/mL (≈ 1.91 µM); with Streptococcus pneumoniae it was 4 µg/mL (≈ 7.64 µM); with Enterococcus faecium it was 16 µg/mL (≈ 30.6 µM); in the assay with Escherichia coli, 32 µg/mL (≈ 61.1 µM); with Acinetobacter baumannii, 32 µg/mL (≈ 61.1 µM). In addition, the minimal inhibitory concentration (MIC) in the assay with Pseudomonas aeruginosa amounted to 32 µg/mL (≈ 61.1 µM).
For the molecule `COc1ccc2ncc(F)c(CC(OCC(=O)O)C34CCC(NCc5ccc6c(n5)NC(=O)CO6)(CC3)CO4)c2n1` (racemic), the MIC in the assay with Staphylococcus aureus [1] worked out at 4 µg/mL (≈ 7.05 µM); in the assay with Staphylococcus aureus [2], 4 µg/mL (≈ 7.05 µM); with Streptococcus pneumoniae it was 32 µg/mL (≈ 56.4 µM); in the assay on Enterococcus faecium, 32 µg/mL (≈ 56.4 µM); in the assay with Escherichia coli, 32 µg/mL (≈ 56.4 µM); in the assay on Acinetobacter baumannii, 32 µg/mL (≈ 56.4 µM). In addition, the MIC with Pseudomonas aeruginosa worked out at 32 µg/mL (≈ 56.4 µM).
